# Assay results: patent US20230123334A1, “AMINO LIPID COMPOUND, PREPARATION METHOD THEREFOR, AND APPLICATION THEREOF” (SHENZHEN SHENXIN BIOTECHNOLOGY CO., LTD., priority 2020, published 2023)
# Tested on: HEK293 cells
# Experiment: Preliminary screening as DNA vectors, GFP transfection of HEK293 cells
# Format: cell-based
# Conditions: amino lipid/DOPE liposome with 75 ng plasmid DNA (psin-EGFP-IRES-Puro); number of GFP-expressing cells divided by total nuclei (Hoechst)
# Method in brief: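 HEK293 cells in DMEM/10% FBS transfected with 75 ng EGFP plasmid per well complexed with amino lipid/DOPE liposomes in pH 5.6 sodium acetate. Hoechst nuclear stain added 20-24 h post-transfection, then cells cultured another 20-24 h. Confocal imaging gives GFP-positive cells as % of total nuclei.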
row,SMILES,Absolute DNA transfection efficiency in HEK293 cells [%]
1,CCCCCCCCCCCCN(CCCCCCCCCCCC)c1nc(NCCN2CCN(C)CC2)nc(SCCCCCCCCC)n1 [S9^2N12 D5],0.3
2,CCCCCCCCCCCCN(CCCCCCCCCCCC)c1nc(NCCCN(C)C)nc(SCCCCCCCCC)n1 [S9^2N12 D6],1.1
3,CCCCCCCCCCCCN(CCCCCCCCCCCC)c1nc(NCCN(CC)CC)nc(SCCCCCCCCC)n1 [S9^2N12 D7],0.2
4,CCCCCCCCCCCCN(CCCCCCCCCCCC)c1nc(NCCCN2CCOCC2)nc(SCCCCCCCCC)n1 [S9^2N12 D8],0.0
5,CCCCCCCCCCCCN(CCCCCCCCCCCC)c1nc(NCCCN2CCN(C)CC2)nc(SCCCCCCCCC)n1 [S9^2N12 D9],0.6
6,CCCCCCCCCCCCN(CCCCCCCCCCCC)c1nc(NCC2CCN(C)CC2)nc(SCCCCCCCCC)n1 [S9^2N12 D10],1.1
7,CCCCCCCCCCSc1nc(NCCCCCC)nc(NCCN(C)C)n1 [S10N6 D1],6.9
8,CCCCCCCCCCSc1nc(NCCCCCC)nc(NCCN2CCOCC2)n1 [S10N6 D2],0.5
9,CCCCCCCCCCSc1nc(NCCCCCC)nc(NCCN2CCCC2)n1 [S10N6 D3],7.3
10,CCCCCCCCCCSc1nc(NCCCCCC)nc(NCCN2CCCCC2)n1 [S10N6 D4],5.7
11,CCCCCCCCCCSc1nc(NCCCCCC)nc(NCCN2CCN(C)CC2)n1 [S10N6 D5],7.0
12,CCCCCCCCCCSc1nc(NCCCCCC)nc(NCCCN(C)C)n1 [S10N6 D6],3.5
13,CCCCCCCCCCSc1nc(NCCCCCC)nc(NCCN(CC)CC)n1 [S10N6 D7],6.6
14,CCCCCCCCCCSc1nc(NCCCCCC)nc(NCCCN2CCOCC2)n1 [S10N6 D8],0.6
15,CCCCCCCCCCSc1nc(NCCCCCC)nc(NCCCN2CCN(C)CC2)n1 [S10N6 D9],5.5
16,CCCCCCCCCCSc1nc(NCCCCCC)nc(NCC2CCN(C)CC2)n1 [S10N6 D10],0.9
17,CCCCCCCCCCSc1nc(NCCCCCCC)nc(NCCN(C)C)n1 [S10N7 D1],8.2
18,CCCCCCCCCCSc1nc(NCCCCCCC)nc(NCCN2CCOCC2)n1 [S10N7 D2],2.4
19,CCCCCCCCCCSc1nc(NCCCCCCC)nc(NCCN2CCCC2)n1 [S10N7 D3],7.4
20,CCCCCCCCCCSc1nc(NCCCCCCC)nc(NCCN2CCCCC2)n1 [S10N7 D4],3.6
21,CCCCCCCCCCSc1nc(NCCCCCCC)nc(NCCN2CCN(C)CC2)n1 [S10N7 D5],7.5
22,CCCCCCCCCCSc1nc(NCCCCCCC)nc(NCCCN(C)C)n1 [S10N7 D6],6.2
23,CCCCCCCCCCSc1nc(NCCCCCCC)nc(NCCN(CC)CC)n1 [S10N7 D7],8.1

row,SMILES,Absolute DNA transfection efficiency in HEK293 cells [%]
1,CCCCCCCCCCSc1nc(NCCCCCCC)nc(NCCCN2CCOCC2)n1 [S10N7 D8],2.6
2,CCCCCCCCCCSc1nc(NCCCCCCC)nc(NCCCN2CCN(C)CC2)n1 [S10N7 D9],4.5
3,CCCCCCCCCCSc1nc(NCCCCCCC)nc(NCC2CCN(C)CC2)n1 [S10N7 D10],1.1
4,CCCCCCCCCCSc1nc(NCCCCCCCC)nc(NCCN(C)C)n1 [S10N8 D1],7.1
5,CCCCCCCCCCSc1nc(NCCCCCCCC)nc(NCCN2CCOCC2)n1 [S10N8 D2],3.7
6,CCCCCCCCCCSc1nc(NCCCCCCCC)nc(NCCN2CCCC2)n1 [S10N8 D3],3.9
7,CCCCCCCCCCSc1nc(NCCCCCCCC)nc(NCCN2CCCCC2)n1 [S10N8 D4],2.1
8,CCCCCCCCCCSc1nc(NCCCCCCCC)nc(NCCN2CCN(C)CC2)n1 [S10N8 D5],13.2
9,CCCCCCCCCCSc1nc(NCCCCCCCC)nc(NCCCN(C)C)n1 [S10N8 D6],10.7
10,CCCCCCCCCCSc1nc(NCCCCCCCC)nc(NCCN(CC)CC)n1 [S10N8 D7],2.0
11,CCCCCCCCCCSc1nc(NCCCCCCCC)nc(NCCCN2CCOCC2)n1 [S10N8 D8],3.4
12,CCCCCCCCCCSc1nc(NCCCCCCCC)nc(NCCCN2CCN(C)CC2)n1 [S10N8 D9],5.6
13,CCCCCCCCCCSc1nc(NCCCCCCCC)nc(NCC2CCN(C)CC2)n1 [S10N8 D10],0.6
14,CCCCCCCCCCSc1nc(NCCCCCCCCC)nc(NCCN(C)C)n1 [S10N9 D1],7.1
15,CCCCCCCCCCSc1nc(NCCCCCCCCC)nc(NCCN2CCOCC2)n1 [S10N9 D2],3.7
16,CCCCCCCCCCSc1nc(NCCCCCCCCC)nc(NCCN2CCCC2)n1 [S10N9 D3],4.9
17,CCCCCCCCCCSc1nc(NCCCCCCCCC)nc(NCCN2CCCCC2)n1 [S10N9 D4],2.7
18,CCCCCCCCCCSc1nc(NCCCCCCCCC)nc(NCCN2CCN(C)CC2)n1 [S10N9 D5],11.9
19,CCCCCCCCCCSc1nc(NCCCCCCCCC)nc(NCCCN(C)C)n1 [S10N9 D6],21.0
20,CCCCCCCCCCSc1nc(NCCCCCCCCC)nc(NCCN(CC)CC)n1 [S10N9 D7],6.9
21,CCCCCCCCCCSc1nc(NCCCCCCCCC)nc(NCCCN2CCOCC2)n1 [S10N9 D8],3.4
22,CCCCCCCCCCSc1nc(NCCCCCCCCC)nc(NCCCN2CCN(C)CC2)n1 [S10N9 D9],12.0
23,CCCCCCCCCCSc1nc(NCCCCCCCCC)nc(NCC2CCN(C)CC2)n1 [S10N9 D10],4.5

row,SMILES,Absolute DNA transfection efficiency in HEK293 cells [%]
1,CCCCCCCCCCCNc1nc(NCCN(C)C)nc(SCCCCCCCCCC)n1 [S10N11 D1],4.8
2,CCCCCCCCCCCNc1nc(NCCN2CCOCC2)nc(SCCCCCCCCCC)n1 [S10N11 D2],1.5
3,CCCCCCCCCCCNc1nc(NCCN2CCCC2)nc(SCCCCCCCCCC)n1 [S10N11 D3],12.6
4,CCCCCCCCCCCNc1nc(NCCN2CCCCC2)nc(SCCCCCCCCCC)n1 [S10N11 D4],8.7
5,CCCCCCCCCCCNc1nc(NCCN2CCN(C)CC2)nc(SCCCCCCCCCC)n1 [S10N11 D5],7.2
6,CCCCCCCCCCCNc1nc(NCCCN(C)C)nc(SCCCCCCCCCC)n1 [S10N11 D6],26.5
7,CCCCCCCCCCCNc1nc(NCCN(CC)CC)nc(SCCCCCCCCCC)n1 [S10N11 D7],5.0
8,CCCCCCCCCCCNc1nc(NCCCN2CCOCC2)nc(SCCCCCCCCCC)n1 [S10N11 D8],3.8
9,CCCCCCCCCCCNc1nc(NCCCN2CCN(C)CC2)nc(SCCCCCCCCCC)n1 [S10N11 D9],10.8
10,CCCCCCCCCCCNc1nc(NCC2CCN(C)CC2)nc(SCCCCCCCCCC)n1 [S10N11 D10],5.4
11,CCCCCCCCCCCCNc1nc(NCCN(C)C)nc(SCCCCCCCCCC)n1 [S10N12 D1],1.8
12,CCCCCCCCCCCCNc1nc(NCCN2CCOCC2)nc(SCCCCCCCCCC)n1 [S10N12 D2],3.7
13,CCCCCCCCCCCCNc1nc(NCCN2CCCC2)nc(SCCCCCCCCCC)n1 [S10N12 D3],7.2
14,CCCCCCCCCCCCNc1nc(NCCN2CCCCC2)nc(SCCCCCCCCCC)n1 [S10N12 D4],4.7
15,CCCCCCCCCCCCNc1nc(NCCN2CCN(C)CC2)nc(SCCCCCCCCCC)n1 [S10N12 D5],2.6
16,CCCCCCCCCCCCNc1nc(NCCCN(C)C)nc(SCCCCCCCCCC)n1 [S10N12 D6],19.8
17,CCCCCCCCCCCCNc1nc(NCCN(CC)CC)nc(SCCCCCCCCCC)n1 [S10N12 D7],5.9
18,CCCCCCCCCCCCNc1nc(NCCCN2CCOCC2)nc(SCCCCCCCCCC)n1 [S10N12 D8],5.3
19,CCCCCCCCCCCCNc1nc(NCCCN2CCN(C)CC2)nc(SCCCCCCCCCC)n1 [S10N12 D9],3.6
20,CCCCCCCCCCCCNc1nc(NCC2CCN(C)CC2)nc(SCCCCCCCCCC)n1 [S10N12 D10],6.8
21,CCCCCCCCCCCCCNc1nc(NCCN(C)C)nc(SCCCCCCCCCC)n1 [S10N13 D1],6.1
22,CCCCCCCCCCCCCNc1nc(NCCN2CCOCC2)nc(SCCCCCCCCCC)n1 [S10N13 D2],4.2
